# Measured values as given in PubChem BioAssay AID248 (DTP/NCI, 2004).
# Values joined by “and” are separate entries in the source; they are usually repeats but may differ in a detail not shown here. Equal entries are not always repeated. Inconclusive results and toxic doses are left out.
# System: L1210 leukemia ip in BDF1 mice, survival T/C
# Test: NCI In Vivo Anticancer Drug Screen. Data for tumor model L1210 Leukemia (intraperitoneal) in B6D2F1 (BDF1) mice
# Conditions: endpoint: mean survival time, higher = longer survival
# Outline: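 Transplantable tumor model; survival measured in treated vs vehicle control mice. Value = treated/control.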
# [1] = dose: 50.0 mg/kg/injection, schedule: Q04DX003 (ip), vehicle: saline
# [2] = dose: 100.0 mg/kg/injection, schedule: Q01DX009 (ip), vehicle: saline
# [3] = dose: 100.0 mg/kg/injection, schedule: Q04DX003 (ip), vehicle: saline
# [4] = dose: 200.0 mg/kg/injection, schedule: Q01DX009 (ip), vehicle: saline
# [5] = dose: 200.0 mg/kg/injection, schedule: Q04DX003 (ip), vehicle: saline
# [6] = dose: 400.0 mg/kg/injection, schedule: Q04DX003 (ip), vehicle: saline
# [7] = dose: 100.0 mg/kg/injection, schedule: Q01DX001 (ip), vehicle: Klucel (hydroxypropylcellulose) (HPC)
# [8] = dose: 100.0 mg/kg/injection, schedule: Q01DX001 (ip), vehicle: saline
# [9] = dose: 200.0 mg/kg/injection, schedule: Q01DX001 (ip), vehicle: Klucel (hydroxypropylcellulose) (HPC)
# [10] = dose: 400.0 mg/kg/injection, schedule: Q01DX001 (ip), vehicle: Klucel (hydroxypropylcellulose) (HPC)
# [11] = dose: 100.0 mg/kg/injection, schedule: Q01DX009 (ip), vehicle: Klucel (hydroxypropylcellulose) (HPC)
# [12] = dose: 200.0 mg/kg/injection, schedule: Q01DX009 (ip), vehicle: Klucel (hydroxypropylcellulose) (HPC)
# [13] = dose: 400.0 mg/kg/injection, schedule: Q01DX009 (ip), vehicle: Klucel (hydroxypropylcellulose) (HPC)
# [14] = dose: 75.0 mg/kg/injection, schedule: Q01DX001 (ip), vehicle: saline
# [15] = dose: 150.0 mg/kg/injection, schedule: Q01DX001 (ip), vehicle: saline
compound,measurement,setting,value
O=C(Nc1cccc(C2=NCCCN2)c1)Nc1ccc(NC(=O)Nc2cccc(C3=NCCCN3)c2)c(Cl)c1,T/C,"dose: 0.47 mg/kg/injection, schedule: Q01DX Z (ip), vehicle: carboxymethylcellulose (CMC)",121 % of control
same,T/C,"dose: 0.93 mg/kg/injection, schedule: Q01DX Z (ip), vehicle: carboxymethylcellulose (CMC)",118 % of control
same,T/C,"dose: 3.75 mg/kg/injection, schedule: Q01DX Z (ip), vehicle: carboxymethylcellulose (CMC)",156 % of control and 204 % of control
same,T/C,"dose: 7.5 mg/kg/injection, schedule: Q01DX Z (ip), vehicle: carboxymethylcellulose (CMC)",229 % of control
same,T/C,"dose: 18.0 mg/kg/injection, schedule: Q01DX001 (ip), vehicle: carboxymethylcellulose (CMC)",152 % of control
same,T/C,"dose: 25.0 mg/kg/injection, schedule: Q01DX Z (oral), vehicle: carboxymethylcellulose (CMC)",101 % of control
same,T/C,"dose: 26.0 mg/kg/injection, schedule: Q01DX001 (ip), vehicle: carboxymethylcellulose (CMC)",150 % of control
same,T/C,"dose: 26.0 mg/kg/injection, schedule: Q01DX001 (ip), vehicle: other",154 % of control
same,T/C,"dose: 40.0 mg/kg/injection, schedule: Q01DX001 (ip), vehicle: carboxymethylcellulose (CMC)",150 % of control and 162 % of control
same,T/C,"dose: 40.0 mg/kg/injection, schedule: Q01DX001 (ip), vehicle: other",171 % of control
same,T/C,"dose: 50.0 mg/kg/injection, schedule: Q01DX Z (oral), vehicle: carboxymethylcellulose (CMC)",98 % of control
same,T/C,"dose: 60.0 mg/kg/injection, schedule: Q01DX001 (ip), vehicle: carboxymethylcellulose (CMC)",173 % of control and 200 % of control
same,T/C,"dose: 60.0 mg/kg/injection, schedule: Q01DX001 (ip), vehicle: other",185 % of control
same,T/C,"dose: 80.0 mg/kg/injection, schedule: Q01DX001 (ip), vehicle: carboxymethylcellulose (CMC)",236 % of control
same,T/C,"dose: 100.0 mg/kg/injection, schedule: Q01DX Z (oral), vehicle: carboxymethylcellulose (CMC)",104 % of control
same,T/C,"dose: 200.0 mg/kg/injection, schedule: Q01DX Z (oral), vehicle: carboxymethylcellulose (CMC)",101 % of control
CCCCCCCCCCCCCCCCn1cnc2ncnc(Cl)c21,T/C,"dose: 12.5 mg/kg/injection, schedule: Q01DX005 (ip), vehicle: other",100 % of control
same,T/C,"dose: 25.0 mg/kg/injection, schedule: Q01DX005 (ip), vehicle: other",102 % of control
same,T/C,"dose: 50.0 mg/kg/injection, schedule: Q01DX005 (ip), vehicle: other",98 % of control
same,T/C,"dose: 100.0 mg/kg/injection, schedule: Q01DX005 (ip), vehicle: other",105 % of control
same,T/C,"dose: 200.0 mg/kg/injection, schedule: Q01DX005 (ip), vehicle: other",100 % of control
O=[N+]([O-])c1cccc(S(=O)(=O)O)c1,T/C,"dose: 50.0 mg/kg/injection, schedule: Q01DX009 (ip), vehicle: saline",93 % of control
same,T/C,[1],97 % of control
same,T/C,[2],87 % of control
same,T/C,[3],96 % of control and 100 % of control
same,T/C,[4],93 % of control
same,T/C,[5],100 % of control and 102 % of control
same,T/C,[6],90 % of control
COc1cc(C)oc(=O)c1,T/C,[7],110 % of control
same,T/C,[8],98 % of control
same,T/C,[2],93 % of control and 101 % of control
same,T/C,[3],97 % of control
same,T/C,[9],104 % of control
same,T/C,"dose: 200.0 mg/kg/injection, schedule: Q01DX001 (ip), vehicle: saline",98 % of control
same,T/C,[4],93 % of control and 104 % of control
same,T/C,[5],93 % of control
same,T/C,[10],106 % of control
same,T/C,"dose: 400.0 mg/kg/injection, schedule: Q01DX001 (ip), vehicle: saline",102 % of control
same,T/C,"dose: 400.0 mg/kg/injection, schedule: Q01DX009 (ip), vehicle: saline with Tween-80",108 % of control
same,T/C,"dose: 400.0 mg/kg/injection, schedule: Q01DX009 (ip), vehicle: saline",93 % of control
same,T/C,[6],92 % of control
CCN(CC)CCOc1ccc(N=N/C(C(C)=O)=C(\C)O)cc1,T/C,"dose: 25.0 mg/kg/injection, schedule: Q04DX002 (ip), vehicle: saline",93 % of control and 96 % of control
same,T/C,"dose: 50.0 mg/kg/injection, schedule: Q04DX002 (ip), vehicle: saline",101 % of control and 104 % of control
NC(=O)N/N=C(/CBr)c1ccc(-c2ccccc2)cc1,T/C,"dose: 25.0 mg/kg/injection, schedule: Q04DX003 (ip), vehicle: saline",101 % of control
same,T/C,[1],95 % of control
same,T/C,[8],96 % of control
same,T/C,[3],91 % of control
O=C(Nc1ccc(Cl)cc1[N+](=O)[O-])c1ccc2ccccc2c1O,T/C,[11],101 % of control
same,T/C,[12],111 % of control
same,T/C,[13],103 % of control
NNC(=O)c1ccc(Cl)cc1Nc1ccccc1,T/C,[7],95 % of control
same,T/C,[11],107 % of control
same,T/C,[9],86 % of control
same,T/C,[12],94 % of control
same,T/C,[10],97 % of control
CSC(N(C)c1ccccc1)=[N+](C)c1ccccc1,T/C,[8],105 % of control
O=C(O)C(O)c1ccc([N+](=O)[O-])cc1 (centres undefined),T/C,[14],92 % of control
same,T/C,"dose: 100.0 mg/kg/injection, schedule: Q04DX002 (ip), vehicle: saline with Tween-80",95 % of control
same,T/C,[15],94 % of control
same,T/C,"dose: 200.0 mg/kg/injection, schedule: Q04DX002 (ip), vehicle: saline with Tween-80",103 % of control
same,T/C,"dose: 300.0 mg/kg/injection, schedule: Q01DX001 (ip), vehicle: saline",90 % of control
same,T/C,"dose: 400.0 mg/kg/injection, schedule: Q04DX002 (ip), vehicle: saline with Tween-80",100 % of control
COC(=O)c1cc(S(=O)(=O)c2cc(C)c(O)c(C(=O)OC)c2)cc(C)c1O,T/C,"dose: 100.0 mg/kg/injection, schedule: Q04DX002 (ip), vehicle: carboxymethylcellulose (CMC)",92 % of control
same,T/C,"dose: 200.0 mg/kg/injection, schedule: Q04DX002 (ip), vehicle: carboxymethylcellulose (CMC)",95 % of control
same,T/C,"dose: 400.0 mg/kg/injection, schedule: Q04DX002 (ip), vehicle: carboxymethylcellulose (CMC)",95 % of control
NC(N)=N/N=C\c1cccc(OCc2ccccc2)c1,T/C,"dose: 15.0 mg/kg/injection, schedule: Q01DX Z (oral), vehicle: saline",94 % of control
same,T/C,"dose: 30.0 mg/kg/injection, schedule: Q01DX Z (oral), vehicle: saline",89 % of control
same,T/C,"dose: 60.0 mg/kg/injection, schedule: Q01DX Z (oral), vehicle: saline",93 % of control
same,T/C,"dose: 120.0 mg/kg/injection, schedule: Q01DX Z (oral), vehicle: saline",94 % of control
CC1CCc2c(c3c(=O)[nH]c(=O)[nH]c3oc2=O)C1 (centres undefined),T/C,"dose: 50.0 mg/kg/injection, schedule: Q01DX009 (ip), vehicle: Klucel (hydroxypropylcellulose) (HPC)",105 % of control
same,T/C,[11],93 % of control
same,T/C,[12],89 % of control
Cc1cccc(C)c1N=Nc1cc[n+]([O-])cc1,T/C,"dose: 6.25 mg/kg/injection, schedule: Q04DX003 (ip), vehicle: saline with Tween-80",92 % of control
same,T/C,"dose: 12.5 mg/kg/injection, schedule: Q04DX003 (ip), vehicle: saline with Tween-80",95 % of control
same,T/C,"dose: 25.0 mg/kg/injection, schedule: Q04DX003 (ip), vehicle: saline with Tween-80",102 % of control and 92 % of control
same,T/C,"dose: 50.0 mg/kg/injection, schedule: Q04DX003 (ip), vehicle: saline with Tween-80",100 % of control
Nc1csc2ncccc12,T/C,[7],112 % of control
same,T/C,[9],105 % of control
same,T/C,[10],114 % of control
COC(=O)c1ccc(OC)c(-c2cc(OC)ccc2C(=O)OC)c1,T/C,"dose: 100.0 mg/kg/injection, schedule: Q04DX002 (ip), vehicle: Klucel (hydroxypropylcellulose) (HPC)",112 % of control
same,T/C,"dose: 200.0 mg/kg/injection, schedule: Q04DX002 (ip), vehicle: Klucel (hydroxypropylcellulose) (HPC)",101 % of control
same,T/C,"dose: 400.0 mg/kg/injection, schedule: Q04DX002 (ip), vehicle: Klucel (hydroxypropylcellulose) (HPC)",104 % of control
COc1cc2c(c3c1CCC(C)(C)O3)Cc1c(cc(OC)c(OC)c1CCC(C)(C)O)O2,T/C,[7],103 % of control
same,T/C,[9],96 % of control
same,T/C,[10],92 % of control
COC(=O)CCC1CCC(=O)C1 (centres undefined),T/C,"dose: 37.5 mg/kg/injection, schedule: Q04DX002 (ip), vehicle: saline with Tween-80",95 % of control
same,T/C,"dose: 75.0 mg/kg/injection, schedule: Q04DX002 (ip), vehicle: saline with Tween-80",95 % of control
same,T/C,"dose: 150.0 mg/kg/injection, schedule: Q04DX002 (ip), vehicle: saline with Tween-80",98 % of control
same,T/C,"dose: 300.0 mg/kg/injection, schedule: Q04DX002 (ip), vehicle: saline with Tween-80",95 % of control
OCC1CC2CC(O)C1C2 (centres undefined),T/C,[14],100 % of control and 110 % of control
same,T/C,[15],108 % of control
C=CCNC(=S)NCc1cccc2ccccc12,T/C,[11],98 % of control
same,T/C,[12],111 % of control
same,T/C,[13],88 % of control
